From a melting point compilation (Tetko et al.; mined from patent text by program, amines drawn as free bases though some values may be those of a salt)

Row | Structure (SMILES) | melting point
1 | O=C(CCCCl)Nc1ccnn1-c1c(Cl)cc(C(F)(F)F)cc1Cl | 103 to 104 °C
2 | CCC1=NC(=NOC(=O)NC)SC1(C)C | 98 to 100 °C
3 | COc1cccc(C(F)(F)F)c1C(N)=O | 178 to 181 °C
4 | NS(=O)(=O)c1ccc(S[C@H]2CC[C@H](O)CC2)s1 | 145 to 147 °C
5 | N#Cc1c(Nc2cccc(Cl)c2)nn(Cc2ccccc2)c1N | 234 to 236 °C
6 | Cc1c([N+](=O)[O-])ccnc1CSc1nc2ccc(C(F)(F)F)cc2[nH]1 | 192 to 193 °C
7 | COc1cc(Nc2c(C#N)cnc3cc(/C=C/CCN4CCCCC4)c(OC)cc23)c(Cl)cc1Cl | 140 to 142 °C
8 | CCCCCCCC(CC(=O)OO)CC(=O)OO | 19 to 22 °C
9 | CC1NC(=O)NN=C1c1ccc(S(N)(=O)=O)cc1 (stereo unspecified) | 259 to 264 °C
10 | CC(=O)c1c(-c2ccc(F)cc2)nc2occn12 | 173 °C
11 | COc1ccc(C=Cc2nc3c([nH]2)c(=O)n(C)c(=O)n3C)cc1OC | > 320 °C
12 | CC=CN(C=CC)c1ccc2[nH]c3cnc(-c4nc(CC)no4)cc3c2c1 | 151 to 156 °C
13 | CC1(C)OC(=O)Nc2ccc(-c3cc([N+](=O)[O-])cc([N+](=O)[O-])c3)cc21 | 297 to 298 °C
14 | CCOC(=O)C=Cc1ccc2c(c1)CC(NC(=O)OC(C)(C)C)CC2 (stereo unspecified) | 99 to 100 °C
15 | NC(=O)c1csc(-c2cc3c(Oc4ccc(Cl)cc4)cncc3s2)n1 | 215 to 218 °C
16 | O=C(NC1(C2CC2)CC1)c1c(NC(=O)c2cc(C(F)(F)F)nn2-c2ncccc2Cl)c(Cl)cc2cn[nH]c12 | > 250 °C
17 | COCCNC(=O)c1cccc(-c2cccc3cc(Cc4ccc(Cl)s4)sc23)c1 | 104 to 105 °C
18 | CN1CCC(C(=O)Nc2ccc(CN(C)C3CCOCC3)cc2)=Cc2cc(-c3ccc(OC(F)(F)F)cc3)ccc21 | 182 to 183 °C
19 | CCCCCCCCCCCCN(Cc1cccnc1)S(C)(=O)=O | 43 to 44 °C
20 | CCOC(=O)C(=Cc1cnccc1OC)N=[N+]=[N-] | 92 to 95 °C
21 | CNC(C)C(=O)Nc1cccc2c1C(=O)c1c(NC(=O)C(C)NC)cccc1C2=O (stereo unspecified) | 233 to 234 °C
22 | CCC(C)(C)NC(Nc1ccc2c(c1)OCO2)=C(C#N)S(=O)(=O)c1ccc(Cl)cc1 | 169 to 170 °C
23 | COc1cc(C(C)=O)ccc1SCCCCl | 53 to 55 °C
24 | CO[C@H]1CN(c2c(F)c(N)c3c(=O)c(C(=O)O)cn([C@@H]4C[C@@H]4F)c3c2C)C[C@@H]1C1(N)CC1 | 202 to 204 °C
25 | O=C(Nc1cccc(Cl)c1)NN1CC=CCC1 | 146 to 147 °C
26 | C=CCC(C#N)(C#N)C(C)(C)c1cccc(Cl)c1 | 84.3 °C
27 | CCOC(=O)c1c(SC)c(N=O)c2ccccn12 | 134 to 135 °C
28 | Cn1nc(N)nc1NCCCOc1cccc(C2OCCO2)c1 | 117 to 118 °C

Row | Structure (SMILES) | melting point
29 | CC#CCOc1cc(Oc2cccc(C#N)c2)ncn1 | 121 °C
30 | N#CN=C(Nc1cccnc1)NC1CCCC1 | 155 to 156 °C
31 | CC(C)(C)OC(=O)C[C@H](NS(=O)(=O)c1ccc2ccccc2c1)C(=O)O | 141 °C
32 | O=C(CCCCCc1ccc(Cl)cc1)Nc1ccc(C(=O)O)cc1 | 218 to 220 °C
33 | O=C(NC(c1ccccc1)c1ccccc1)N1CCC(C(=O)O)(c2ccccc2)CC1 | 208 °C
34 | CC(C)N(CCOc1ccc2c(=O)c3ccc(OCCN(C(C)C)C(C)C)cc3oc2c1)C(C)C | 118 °C
35 | O=C(CC(=O)C(F)(F)F)c1ccc(-n2cccn2)cc1 | 96 °C
36 | COc1ccc2oc(C(=O)NCc3ccccc3)c(OC(C)C)c2c1 | 68 to 69 °C
37 | CCn1c2ccccc2c2cc(N(c3ccccc3)c3ccc(-c4ccc(N(c5ccccc5)c5ccc6c(c5)c5ccccc5n6CC)cc4)cc3)ccc21 | 250 to 252 °C
38 | COC(=O)c1cnn2c(C(F)(F)F)cc(O)nc12 | 149 to 150 °C
39 | CCN(CC)CCC(=O)Nc1ccc([N+](=O)[O-])cc1 | 86 to 88 °C
40 | CC(C)c1ccc(-c2c(Cl)ncnc2Cl)cc1 | 69 to 70 °C
41 | NCC1CCC(CNc2ncc3ncnc(Nc4ccc(F)c(Cl)c4)c3n2)CC1 (stereo unspecified) | 155 to 160 °C
42 | O=S(=O)(CCl)N(Cc1cccnc1)c1ccc(Cl)cc1 | 98 to 100 °C
43 | CCCCCCc1sc(C(N)=O)c2c1-c1c(cnn1C)CC2 | 100 to 101 °C
44 | OC(c1ccc2c(c1)CCN2)(C(F)F)C(F)F | 130 to 134 °C
45 | CCN(CC)CC(O)Cn1ccnc1[N+](=O)[O-] (stereo unspecified) | 92 to 93 °C
46 | Cc1noc(-c2ncn3c2CN(C)C(=O)c2ccccc2-3)n1 | 257 to 260 °C
47 | O=C(Nc1ccccc1C(F)(F)F)c1c(O)c2ccccc2oc1=O | 157 to 159 °C
48 | Nc1ncccc1OCC#CI | 140 °C
49 | COc1cc(-c2ccc(C(C)C)cc2)c(C)c2oc(=O)c(C)c(C)c12 | 172 °C
50 | CC1CCN(c2cc(C(C)(C)C)on2)C1=O (stereo unspecified) | 89 to 90 °C
51 | CC(=O)OCC1OC(n2c(Cl)nc3cc(Cl)c(Cl)cc32)C(OC(C)=O)C1OC(C)=O (stereo unspecified) | 145 to 146 °C
52 | CC1=C(C)C(=O)N(c2ccc(Cl)c(Cl)c2)C1=O | 188 °C
53 | CC(=O)Nc1ccc(C(=O)Nc2ccccc2NC(=O)CNC(=O)OC(C)(C)C)cc1 | 125 to 126 °C
54 | CC(C)Oc1nc(N)nc2ccc(-c3ccc(F)cc3)nc12 | 191 to 192 °C
55 | CC(C)NC1=NS(=O)(=O)c2cc(C(C)(C)C)ccc2N1 | 128 to 130 °C

Now from value to compound:

Row | melting point | Structure (SMILES)
56 | 122 to 123 °C | CCOC(=O)N1CCOC(c2ccccc2)(c2ccccc2)CC1
57 | 102 °C | O=C(O)CCC1COc2ccccc2O1 (stereo unspecified)
58 | 42.5 to 43 °C | C1=CCC2=C(C1)CCc1ccccc1C2
59 | 62 to 63 °C | CCOC(=O)CCC(=O)c1ccc(CCCCN2CCN(c3cccc(C)c3)CC2)cc1
60 | 134 to 138 °C | c1ccc2c(OC[C@H]3CCCN3c3ncnc4[nH]cnc34)ccc(CN3CCOCC3)c2c1
61 | 142 to 144 °C | CN(C)CCCC1CCCCN1C(=O)N1c2ccccc2C(=O)Nc2cccnc21 (stereo unspecified)
62 | 136 to 138 °C | Cc1oc(-c2ccccc2)nc1COc1ccc(OC(C)(C)C(=O)O)cc1
63 | 192 to 193 °C | CN1c2ccccc2N=C(N2CCN(CCO)CC2)c2cscc21
64 | 215 to 218 °C | N#Cc1ccc(-c2cc(C(=O)N[C@H]3CC[C@H](C(=O)O)CC3)c(=O)n(Cc3ccccc3)n2)cc1
65 | 277 to 279 °C | CCCn1ncc2c(=O)[nH]c(-c3cc(C(=O)O)ccc3OCC)nc21
66 | 48 to 49 °C | OC(CCc1nc(CCl)no1)c1ccc(-c2ccccc2)cc1 (stereo unspecified)
67 | 106 to 107 °C | COC(=O)c1cc(OCc2ccc3ccccc3n2)n(C(C)C)n1
68 | 133 to 135 °C | COc1cc(-n2cccn2)ccc1-n1cc(OC)c(=O)c(-c2ccnn2-c2ccccc2)n1
69 | 151 °C | CCOC(=O)Cc1cnc2c(NC(=O)c3c(Cl)cccc3Cl)cccc2c1
70 | 158 to 161 °C | CON=Cc1ccc(-c2ccccc2NC(=O)c2c(C)nn(C)c2F)cc1F
71 | 287 °C | CC1SC(=O)NN=C1c1ccc2c(c1)C(=Cc1cccs1)C(=O)N2 (stereo unspecified)
72 | 341 to 344 °C | O=C1Nc2cc(Cl)ccc2C(=O)C1c1ccsc1 (stereo unspecified)
73 | 114 °C | COC(=O)CN1Cc2cc(C(=O)c3cccnc3)ccc2N=C1SC
74 | 143 to 147 °C | CCc1cc(C(=O)c2ccccc2Cl)c(-n2c(C)nnc2CNC(=O)c2[nH]c3ccccc3c2C)s1
75 | 133 to 135 °C | CC(=O)Nc1ccc2c(c1)C(=O)N(CCCl)CO2
76 | 211 to 213 °C | Nc1cc(S(=O)(=O)c2ccccc2)c([N+](=O)[O-])c2cccnc12
77 | 214 °C | CCCCc1cn(Cc2ccc(-c3ccccc3C(=O)O)cc2)c2ccccc2c1=O
78 | 195 to 198 °C | Cc1c(-c2ccnc3cc(Cl)ccc23)c2cc(NS(C)(=O)=O)ccc2n1CC(=O)O

Row | melting point | Structure (SMILES)
79 | 83 to 85 °C | COC(=O)N1CCCC2CN(c3ccc(N4CC(CNC(C)=O)OC4=O)cc3F)CC21 (stereo unspecified)
80 | 153 to 156 °C | COc1ccc(-c2sc3c(c2C)c(=O)c(CO)cn3Cc2ccccc2OC)cc1
81 | 146 to 147 °C | CN1CCC(c2ccccc2)(C(C)(C)O)CC1
82 | 117 to 118 °C | CC(C)(C)c1ccc(CCC(C=O)CC2CCCCC2)cc1NC(=O)CC1c2ccccc2Oc2ccccc21 (stereo unspecified)
83 | 116 to 118 °C | COC(=O)c1c(C)oc2ccccc2c1=O
84 | 85 to 87 °C | CCCc1c(OCCCOc2cccnc2CCC(=O)OC)ccc(C(C)=O)c1O
85 | > 270 °C | CC1CCCN1CCN1C=c2ccc(=c3ccc4c(c3)CCN(C)C=4)cc2CC1 (stereo unspecified)
86 | 47 to 49 °C | COc1ccc(/C=C/c2c(Cl)cccc2Cl)cc1OC1CCCC1
87 | 148 °C | Cc1cc(Cl)ccc1NC(=S)NC(=O)c1ccccc1
88 | 210 to 212 °C | COc1ccc(Cc2cnc(N)nc2N)cc1OCc1ccccc1
89 | 171 to 173 °C | CCCCc1ccc(CNc2cc(C(=O)Nc3ccccc3)ccc2OC)cc1
90 | 166 °C | O=C1CCCC(Sc2ccccc2)C(c2ccccc2)O1 (stereo unspecified)
91 | 211 to 212 °C | COc1cc2c(cc1Cl)C(O[Si](C)(C)C)(c1ccccc1Cl)C(=O)N2 (stereo unspecified)
92 | 135 to 140 °C | O=C(O)c1ccc(OCCNC(=O)C2Cc3ccccc3N2S(=O)(=O)c2ccc(-c3cccc(C(F)(F)F)c3)cc2)c(Cl)c1 (stereo unspecified)
93 | 155 to 156 °C | COC(=S)c1ccc(-c2ccccc2)c(S(C)(=O)=O)c1
94 | 150 °C | Clc1ccccc1-c1c(I)nc2ncnn2c1NC1CCCC1
95 | 238 to 242 °C | c1ccc(C(N=C2NCCCN2)c2ccccc2)cc1
96 | 174 °C | N#CC1(c2ccccc2)CCN(c2ccn(CC3CC3)c(=O)c2Cl)CC1
97 | > 260 °C | O=C1c2ccccc2C(=O)c2oc(-c3cccs3)nc21
98 | 191 to 192 °C | CCCN(C(=O)c1cccc(-c2nc(=O)c3ccccc3s2)n1)C(=O)N(C)C
99 | 166 to 168 °C | COc1ccc(C2=NNC(=O)[C@H]3CC=CC[C@@H]23)cc1OC1CCCC1 (relative stereo)
100 | 129 to 131 °C | CC(=O)OC1CN=C(c2ccccc2Cl)c2ccccc2N(C)C1 (stereo unspecified)
101 | > 300 °C | CCCCn1c(=O)c2c(NC)n[nH]c2n(Cc2ccccc2[N+](=O)[O-])c1=O
